Results published in paper PMC7822819, “Discovery of a new class of integrin antibodies for fibrosis” (Scientific Reports, 2021).
Where “and” joins values, the source holds several entries; their conditions need not be identical. Identical values can stand only once.

Legend:
[1] = tested on: bleomycin-induced lung fibrosis; test: Bleomycin-induced lung fibrosis mouse model; type: in vivo; conditions: BLM mice, Nintedanib 60 mpk po qd
Description: Adult male C57BL/6 mice (Taconic, Rensselaer, NY) were housed in a temperature and humidity-controlled facility with a 12 h light: 12-h dark cycle. Animals had ad libitum access to food (Purina Rodent Chow 5053, LabDiet, St. Louis, MO) and water. All procedures utilizing experimental animals were conducted in accordance with the Guide for the Care and Use of Laboratory Animals, and experimental procedures were reviewed and approved by the Institutional Animal Care and Use Committee at MRL, Kenilworth, NJ. For osmotic minipump implantation, TFA salt of MK-0429 was formulated in 50% DMSO/50% H2O at a concentration of 416 mg/mL. MK-0429 or vehicle solution were filled in minipumps (Alzet, # 1007D, flow rate 0.5 μL/h). Minipumps were placed in mice subcutaneously in a pocket on the back between the shoulder blades. A small incision was made and a subcutaneous pocket formed by blunt dissection. A sterile minipump was inserted into the subcutaneous pocket. The incision was closed with staples or non-absorbable suture or absorbable (subcuticular) suture. The minipumps were used for continuous drug delivery for 2 weeks. Mice at 12 ~ 13 weeks of age were randomized to 5 groups: saline, bleomycin instillation with vehicle (osmotic minipump), bleomycin instillation with MK-0429 treatment, bleomycin instillation with vehicle oral treatment, and bleomycin instillation with Nintedanib treatment. All mice were anaesthetized with isoflurane. Bleomycin was dosed by intra-tracheal (i.t) instillation in a volume of 50 µl, at a dose of 1unit /kg body weight. After instillation, mice were kept in a heads-up position for 2–5 min before putting into cages. MK-0429 (200 mg/kg) was administered by Osmotic pump from day 5 to day 14 and Nintedanib (60 mg/kg) was administered, p.o., q.d., for 14 days. Vehicle was dosed orally at 10 am daily from the day 5 to the end of the studies and dosing volume was 10 mL/kg. For plasma PK analysis, an aliquot of 50 μL plasma was spiked into a 96-well plate, and 200 μL of acetonitrile containing internal standard were added for protein precipitation. The mixture was vortexed, centrifuged at 4000 rpm for 20 min. 50 μL of supernatant were mixed with 200 μl H2O and the final solution were injected for LC–MS/MS analysis. The methods for quantitative analysis were developed on UPLC (Waters) chromatographic system equipped with an API4000 QTrap mass spectrometer (Applied Biosystems, Concord, Ontario, Canada). Analyst 1.5 software packages (Applied Biosystems) were used to control the LC–MS/MS system and data acquisition and processing. Upon completion of the study, animals were euthanized and tissues were collected for histological assessment. Lung tissues were perfused with 10% formalin, fixed for 24 h, and then paraffin embedded. Tissue sections were stained with hematoxylin & eosin (H&E) and Masson’s trichrome, subsequently evaluated under light microscope. The severity of histopathologic changes and fibrosis in the lung were graded as described previously by pathologists[51],[52]. Following deparaffinization and rehydration, each lung tissue section was processed to identify αSMA deposition by immunohistochemistry. The primary antibodies used were αSMA antibody from Sigma. The Aperio ScanScope XT Slide Scanner (Aperio Technologies) system was used to capture whole slide digital images with a 20 × objective. Digital images were managed using Aperio Spectrum. The positive stains were identified and quantified using a macro created from a color deconvolution algorithm (Aperio Technologies). Statistical analysis was performed by using One-way ANOVA followed by Tukey’s test.

[2] = Plasma total drug concentration in bleomycin model (LC-MS/MS); type: in vivo, mouse; conditions: 2 h after last dose, Day 19; MK-0429 200 mpk minipump, Nintedanib 60 mpk po qd; mean ± SE
Description: Mice at 12 ~ 13 weeks of age were randomized to 5 groups: saline, bleomycin instillation with vehicle (osmotic minipump), bleomycin instillation with MK-0429 treatment, bleomycin instillation with vehicle oral treatment, and bleomycin instillation with Nintedanib treatment. All mice were anaesthetized with isoflurane. Bleomycin was dosed by intra-tracheal (i.t) instillation in a volume of 50 µl, at a dose of 1unit /kg body weight. After instillation, mice were kept in a heads-up position for 2–5 min before putting into cages. MK-0429 (200 mg/kg) was administered by Osmotic pump from day 5 to day 14 and Nintedanib (60 mg/kg) was administered, p.o., q.d., for 14 days. Vehicle was dosed orally at 10 am daily from the day 5 to the end of the studies and dosing volume was 10 mL/kg. For plasma PK analysis, an aliquot of 50 μL plasma was spiked into a 96-well plate, and 200 μL of acetonitrile containing internal standard were added for protein precipitation. The mixture was vortexed, centrifuged at 4000 rpm for 20 min. 50 μL of supernatant were mixed with 200 μl H2O and the final solution were injected for LC–MS/MS analysis. The methods for quantitative analysis were developed on UPLC (Waters) chromatographic system equipped with an API4000 QTrap mass spectrometer (Applied Biosystems, Concord, Ontario, Canada). […]

[3] = tested on: normal human lung fibroblasts; test: TGFβ-induced αSMA high-content imaging; type: cell-based; conditions: 10 μM, 30 min pre-treatment, TGFβ 5 ng/mL, 48 h
Description: (§1) Normal human lung fibroblasts (Lonza) and Primary Human IPF Lung Parenchymal Fibroblasts (Donor2) (BioIVT, #PCR-70-0214) were incubated at 37 °C and 5% CO2. To induce fibrotic response in primary cells, a final concentration of 5 ng/ml of recombinant human TGFβ1 (BioLegend, #580702) was added to the culture media and treated for 24 ~ 48 h. Anti-TGFβ neutralizing antibody (1D11) and the isotype control mouse IgG1 were from BioXcell. SB-525334 and bleomycin were from Sigma. MK-0429 was synthesized by Merck & Co., Inc., Kenilworth, NJ, USA. CHOK1-integrin stable lines were cultured in DMEM/F12, Glutamax (Gibco #10565018), 10% FBS (Gibco 310091148), 1 × Pen/Strep (Gibco 315140-148), and 6 ug/mL Puromycin (Gibco #A1113803).
(§2) Primary cells (passage 3–5) were grown on Cell carrier Ultra, col1 coated 96-well plates (Perkin Elmer, #6055700) at a density of 25,000 cells/well. Once the cells adhere, they were starved in serum free media for 24 h followed by addition of treatments i.e. 5 ng/mL TGFβ (Biolegend #580702) ± inhibitors. Cells were pre-treated with inhibitors for 30 min prior to the addition of TGFβ stimulation. 48hours post treatment, the cells were fixed in 4% methanol free paraformaldehyde (ThermoFisher Scientific #28908) for 20 min at room temperature and incubated with anti-alpha smooth muscle Actin antibody (Abcam #ab7817) at 1:4000 overnight at 4 °C. […]

[4] = tested on: IPF patient lung fibroblasts; test: TGFβ-induced αSMA high-content imaging; type: cell-based, human; conditions: TGFβ 5 ng/mL, 48 h, read-out: IC50 TGFβ-mediated αSMA induction
Description: as §1, §2

[5] = treatment from day 5 for 14 days, MK-0429 200 mpk osmotic minipump, vs BLM-vehicle

| Compound | TIMP-1 content in BALF ([1]; 14 days treatment, MK-0429 200 mpk minipump) | Modified Ashcroft score of mouse lung [1, 5] | Total inflammation area in mouse lungs [1, 5] | αSMA immunohistochemistry in lung [1, 5] | Body weight vs bleomycin group ([1]; MK-0429 200 mpk minipump) | Mean plasma total drug concentration [2] | αSMA intensity and percentage of stimulated cells following TGFβ treatment [3] | IC50 [4] |
| --- | --- | --- | --- | --- | --- | --- | --- | --- |
| COC(=O)c1ccc2c(c1)NC(=O)/C2=C(\Nc1ccc(N(C)C(=O)CN2CCN(C)CC2)cc1)c1ccccc1 [Nintedanib] | significantly decreased | significantly improved | decreased | significantly decreased | no significant body weight difference | 656.1 ng/mL and 656 ± 229 ng/mL |  |  |
| Cc1cccc(-c2[nH]c(C(C)(C)C)nc2-c2ccc3nccnc3c2)n1 [SB-525334] |  |  |  |  |  |  | significantly reduced | 56 ± 22 nM |
